Experiment: method code SF-AS, from DOI: 10.1271/bbb1961.38.1521

SMILES	logP
CCCc1ccccc1OC(=O)NC	2.4
CNC(=O)Oc1cccc(C(C)C)c1	2.63
CNC(=O)Oc1ccc(C(C)=O)cc1	1.01
CNC(=O)Oc1ccc(S(C)(=O)=O)cc1	0.34
CCC(C)c1ccc(OC(=O)NC)cc1 (stereo unspecified)	3.2
CNC(=O)Oc1cc(C)cc(C(C)(C)C)c1	3.35
CNC(=O)Oc1ccc(SC)cc1	1.92
CCCCOc1ccc(OC(=O)NC)cc1	2.86
CNC(=O)Oc1cccc(C(=O)OC)c1	1.42
CNC(=O)Oc1ccccc1OC	0.81
CNC(=O)Oc1ccccc1Cl	1.64
CNC(=O)Oc1cccc(F)c1	1.48
CNC(=O)Oc1ccccc1Br	1.77
CNC(=O)Oc1cccc(C(C)(C)C)c1	2.93
CNC(=O)Oc1cccc(Br)c1	2.25
CNC(=O)Oc1ccc(Cl)c(C)c1	2.57
CNC(=O)Oc1cc(C)ccc1C	2.03
CNC(=O)Oc1ccccc1C(C)(C)C	2.65
CNC(=O)Oc1ccc([N+](=O)[O-])cc1	1.47
CNC(=O)Oc1cccc(OC(C)C)c1	1.96
CNC(=O)Oc1ccccc1F	1.25
CNC(=O)Oc1ccccc1C	1.46
CNC(=O)Oc1cc(C)cc(C(C)C)c1	3.1
CCOc1ccccc1OC(=O)NC	1.24
CNC(=O)Oc1ccc(C(=O)OC)cc1	1.5
CCC(=O)c1ccc(OC(=O)NC)cc1	1.55

SMILES	logP
CNC(=O)Oc1ccccc1C#N	0.86
CCc1ccccc1OC(=O)NC	1.93
CNC(=O)Oc1cccc(Cl)c1	2.03
CNC(=O)Oc1ccc(Cl)c(Cl)c1	2.8
CNC(=O)Oc1cc(Cl)cc(Cl)c1	3.03
CNC(=O)Oc1ccc(C(C)(C)C)c(C)c1	3.38
CNC(=O)Oc1ccc(C#N)cc1	0.95
CNC(=O)Oc1ccccc1C(C)C	2.31
CCCc1ccc(OC(=O)NC)cc1	2.72
CNC(=O)Oc1ccc(C=O)cc1	0.99
CNC(=O)Oc1ccccc1I	1.96
CCCc1cccc(OC(=O)NC)c1	2.64
CNC(=O)Oc1cccc2ccccc12	2.36
CNC(=O)Oc1cc(C)ccc1C(C)(C)C	3.14
CNC(=O)Oc1ccccc1[N+](=O)[O-]	1.02
CNC(=O)Oc1ccc2ccccc2c1	2.56
CNC(=O)Oc1cccc(C=O)c1	0.92
CNC(=O)Oc1ccc(C(C)(C)C)cc1	3.06
CNC(=O)Oc1ccc(Br)cc1	2.17
CNC(=O)Oc1ccc(SC)c(C)c1	2.47
CNC(=O)Oc1cccc(C(F)(F)F)c1	2.37
CNC(=O)Oc1cc(C)ccc1C(C)C	2.84
CNC(=O)Oc1ccc(Cl)cc1	2.01
CCCCOc1cccc(OC(=O)NC)c1	2.96
CNC(=O)Oc1cccc(C)c1C	1.95

From the SangsterLogP compilation
